CCCN[C@@H]1CCc2nc(N)sc2C1.Cl.Cl [Form B, (R)-(+)-2-amino-4,5,6,7-tetrahydro-6-(n-propylamino)benzothiazole dihydrochloride]
polymorphic form conversion under exposure to humidity and/or moisture: converts to Form A

— US10208003B2, “Synthesis of amine substituted 4,5,6,7-tetrahydrobenzothiazole compounds” (KNOPP BIOSCIENCES LLC, priority 2011, dated 2019)
